{"source": "ChEMBL document CHEMBL1129083", "about": "“The synthesis of 5-azido-UTP and UDP-pyridoxal and their effect on the carbamoyl-phosphate synthetase (CPS II) in the mammalian multienzyme polypeptide CAD” (Bioorg Med Chem Lett, 1996)", "key": {"[1]": {"target": "Multifunctional protein CAD (Homo sapiens) (UniProt P27708)", "sequence (P27708 whole entry)": "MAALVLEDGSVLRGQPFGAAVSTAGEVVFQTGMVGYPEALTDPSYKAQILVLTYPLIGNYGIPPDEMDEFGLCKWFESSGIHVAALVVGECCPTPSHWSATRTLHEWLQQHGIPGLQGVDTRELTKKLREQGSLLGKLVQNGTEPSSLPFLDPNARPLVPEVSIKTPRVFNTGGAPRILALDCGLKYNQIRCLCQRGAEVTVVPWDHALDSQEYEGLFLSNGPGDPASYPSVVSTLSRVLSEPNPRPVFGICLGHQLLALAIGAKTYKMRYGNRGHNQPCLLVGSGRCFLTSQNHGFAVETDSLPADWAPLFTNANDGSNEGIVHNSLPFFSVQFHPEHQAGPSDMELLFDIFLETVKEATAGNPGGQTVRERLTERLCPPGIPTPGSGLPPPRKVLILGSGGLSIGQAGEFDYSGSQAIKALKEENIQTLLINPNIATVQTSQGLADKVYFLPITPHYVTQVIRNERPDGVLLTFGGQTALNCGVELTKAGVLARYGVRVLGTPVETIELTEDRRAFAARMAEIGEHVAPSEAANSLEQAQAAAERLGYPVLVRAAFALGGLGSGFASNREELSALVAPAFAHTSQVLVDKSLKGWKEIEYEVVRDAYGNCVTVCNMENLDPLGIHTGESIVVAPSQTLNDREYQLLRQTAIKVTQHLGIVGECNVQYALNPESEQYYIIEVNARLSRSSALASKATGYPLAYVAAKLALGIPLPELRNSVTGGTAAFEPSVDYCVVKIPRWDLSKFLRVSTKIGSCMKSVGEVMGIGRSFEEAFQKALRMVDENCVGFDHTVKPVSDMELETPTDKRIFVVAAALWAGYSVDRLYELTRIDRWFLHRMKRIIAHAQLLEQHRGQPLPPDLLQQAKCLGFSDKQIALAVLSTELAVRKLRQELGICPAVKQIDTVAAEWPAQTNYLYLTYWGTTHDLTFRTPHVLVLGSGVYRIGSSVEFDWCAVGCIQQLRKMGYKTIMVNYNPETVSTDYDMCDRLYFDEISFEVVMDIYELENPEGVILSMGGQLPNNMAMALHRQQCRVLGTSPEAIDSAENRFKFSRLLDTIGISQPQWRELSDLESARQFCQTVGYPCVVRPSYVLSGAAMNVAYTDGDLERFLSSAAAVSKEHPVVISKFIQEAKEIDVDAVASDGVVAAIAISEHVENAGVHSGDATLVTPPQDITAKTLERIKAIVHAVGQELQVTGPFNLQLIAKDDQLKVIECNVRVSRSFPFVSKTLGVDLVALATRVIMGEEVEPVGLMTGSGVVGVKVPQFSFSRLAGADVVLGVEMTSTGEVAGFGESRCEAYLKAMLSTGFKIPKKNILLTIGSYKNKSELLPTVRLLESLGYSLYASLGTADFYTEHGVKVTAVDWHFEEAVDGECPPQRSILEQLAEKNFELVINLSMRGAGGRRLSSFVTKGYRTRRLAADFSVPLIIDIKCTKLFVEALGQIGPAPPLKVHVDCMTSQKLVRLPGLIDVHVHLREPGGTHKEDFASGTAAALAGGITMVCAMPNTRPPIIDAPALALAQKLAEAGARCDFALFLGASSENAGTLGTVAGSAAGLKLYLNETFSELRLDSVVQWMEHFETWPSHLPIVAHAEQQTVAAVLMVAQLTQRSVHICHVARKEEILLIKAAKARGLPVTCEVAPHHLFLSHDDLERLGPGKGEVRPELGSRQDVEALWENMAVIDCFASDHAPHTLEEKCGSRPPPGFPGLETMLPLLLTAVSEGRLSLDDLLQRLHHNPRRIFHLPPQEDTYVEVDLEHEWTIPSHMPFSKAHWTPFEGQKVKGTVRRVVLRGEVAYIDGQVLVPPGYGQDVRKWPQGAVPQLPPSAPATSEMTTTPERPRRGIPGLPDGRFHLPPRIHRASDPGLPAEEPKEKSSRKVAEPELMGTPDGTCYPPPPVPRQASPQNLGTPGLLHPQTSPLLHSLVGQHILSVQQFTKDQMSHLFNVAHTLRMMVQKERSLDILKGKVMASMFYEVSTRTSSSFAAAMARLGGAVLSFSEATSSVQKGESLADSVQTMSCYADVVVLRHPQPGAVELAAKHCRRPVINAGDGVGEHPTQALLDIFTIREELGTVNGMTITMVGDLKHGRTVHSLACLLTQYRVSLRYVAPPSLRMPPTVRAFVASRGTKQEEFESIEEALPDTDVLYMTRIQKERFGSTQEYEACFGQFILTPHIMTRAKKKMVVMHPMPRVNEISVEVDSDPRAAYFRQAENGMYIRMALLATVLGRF", "assay": "Compound was evaluated for its effect on the activity of mammalian Carbamoyl-phosphate synthetase in the multienzyme polypeptide CAD at a concentration of 0.4mM"}, "[2]": {"target": "Multifunctional protein CAD (Homo sapiens) (UniProt P27708)", "assay": "Compound was evaluated for its effect on the activity of mammalian Carbamoyl-phosphate synthetase in the multienzyme polypeptide CAD at a concentration of 1.2mM"}, "[3]": {"target": "Multifunctional protein CAD (Homo sapiens) (UniProt P27708)", "assay": "Compound was evaluated for its effect on the activity of mammalian Carbamoyl-phosphate synthetase in the multienzyme polypeptide CAD at a concentration of 1.6mM"}, "[4]": {"target": "Multifunctional protein CAD (Homo sapiens) (UniProt P27708)", "assay": "Compound was evaluated for its effect on the activity of mammalian Carbamoyl-phosphate synthetase in the multienzyme polypeptide CAD at a concentration of 1.2 mM"}, "[5]": {"target": "Multifunctional protein CAD (Homo sapiens) (UniProt P27708)", "assay": "Compound was evaluated for its effect on the activity of mammalian Carbamoyl-phosphate synthetase in the multienzyme polypeptide CAD at a concentration of 4mM"}}, "data": [{"smiles": "Cc1ncc(COP(=O)(O)OP(=O)(O)OC[C@H]2OC(n3ccc(=O)[nH]c3=O)[C@H](O)[C@@H]2O)c(C=O)c1O", "note": "(stereo not given in full)", "values": [{"measurement": "Activity", "setting": "[1]", "value": 120, "unit": "%"}]}, {"smiles": "Cc1ncc(CO)c(C=O)c1O", "values": [{"measurement": "Activity", "setting": "[2]", "value": 73, "unit": "%"}]}, {"smiles": "Cc1ncc(COP(=O)(O)O)c(C=O)c1O", "values": [{"measurement": "Activity", "setting": "[1]", "value": 170, "unit": "%"}]}, {"smiles": "O=P(O)(O)OC[C@H]1OC(OP(=O)(O)OP(=O)(O)O)[C@H](O)[C@@H]1O", "note": "(stereo not given in full)", "values": [{"measurement": "Activity", "setting": "[1]", "value": 320, "unit": "%"}]}, {"smiles": "O=c1ccn([C@@H]2O[C@H](CO)C(O)C2O)c(=O)[nH]1", "note": "(single isomer, unassigned)", "values": [{"measurement": "Activity", "setting": "[3]", "value": 100, "unit": "%"}]}, {"smiles": "O=P(O)(O)OC[C@H]1O[C@H](O)C(O)C1O", "note": "(single isomer, unassigned)", "values": [{"measurement": "Activity", "setting": "[3]", "value": 100, "unit": "%"}]}, {"smiles": "[N-]=[N+]=Nc1cn([C@@H]2O[C@H](COP(=O)(O)OP(=O)(O)OP(=O)(O)O)[C@@H](O)[C@H]2O)c(=O)[nH]c1=O", "values": [{"measurement": "Activity", "setting": "[4]", "value": 48, "unit": "%"}]}, {"smiles": "O=c1ccn([C@@H]2O[C@H](COP(=O)(O)OP(=O)(O)OP(=O)(O)O)[C@@H](O)[C@H]2O)c(=O)[nH]1", "values": [{"measurement": "Activity", "setting": "[2]", "value": 18, "unit": "%"}]}, {"smiles": "Nc1ncnc2c1ncn2[C@@H]1O[C@H](COP(=O)(O)OP(=O)(O)OP(=O)(O)O)[C@@H](O)[C@H]1O", "values": [{"measurement": "Activity", "setting": "[5]", "value": 100, "unit": "%"}]}, {"smiles": "O=c1ccn([C@@H]2O[C@H](COP(=O)(O)OP(=O)(O)O)[C@@H](O)[C@H]2O)c(=O)[nH]1", "values": [{"measurement": "Activity", "setting": "[2]", "value": 54, "unit": "%"}]}]}
